Laboratory results taken from the METLIN SMRT retention time set (Domingo-Almenara et al. 2019).

Experiment: gradient 5% acetonitrile 3 min, to 50% in 2 min, to 85% in 15 min, held 3 min, 100 µL/min
Details: column: Zorbax Extend-C18 2.1 x 50 mm; eluents: water / acetonitrile, 0.1% formic acid
In short: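 Each retention time is based on an adduct peak selected computationally and verified by manual inspection. Measurements used HPLC–quadrupole time-of-flight mass spectrometry in positive and negative ionization mode on mixtures of ~100 pure standards. Chromatography ran on a Zorbax Extend-C18 column (2.1 × 50 mm, 1.8 μm) at 100 μL/min with water and acetonitrile, each containing 0.1% formic acid, and dead and dwell volumes of 40 μL and 900 μL.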

RP-LC retention time	Structure (SMILES)
923 s	O=C1NC(=O)/C(=C/c2ccc(-c3ccc(F)cc3O)o2)S1
1030 s	Cc1ccc(-c2noc(CN3C(=O)COc4ccccc43)n2)cc1
781 s	COc1cccc(C(=O)Nc2cccc(-c3nc4ncccc4o3)c2)c1
1130 s	COc1ccc(-n2ncc3c(=O)n(Cc4nc(-c5cccc(C(F)(F)F)c5)no4)cnc32)cc1
788 s	Cc1cc(C)cc(NC(=O)N2CCC(N3CCN(Cc4ccc(F)cc4)C(=O)C3=O)CC2)c1
796 s	Cc1ccc2c(c1)C(=O)NC1(CCN(C(=O)Nc3ccc(C)c(C)c3)CC1)N2C
803 s	COc1cccc(NC(=O)Cn2nc3cc(C)nc(-c4ccccc4)n3c2=O)c1
893 s	COc1ccc(Oc2cc3c(cc2NC(=O)Nc2ccccc2)n(C)c(=O)n3C)cc1
644 s	COc1ccc(C(=O)NC2CCN(c3ccc(N4CCSCC4)nn3)CC2)c(OC)c1
672 s	COc1ccc(CNC(=O)C2CCN(Cc3cn(C)c4ccc(OC)cc34)CC2)c(OC)c1
1150 s	CCCc1nc(-n2cccc2)sc1C(=O)Nc1ccc(OC)cc1F
894 s	COCC(=O)N(CC(=O)N1CCc2sccc2C1COc1cccc(OC)c1)CC(C)C (configuration not stated)
858 s	COC(=O)c1cn(NC(=O)c2cc(-c3ccco3)nc3ccccc23)c(=O)c2ccccc12
608 s	CC(=O)N[C@@H]1CN(C(=O)c2cc(Cl)ccc2F)C[C@H]1CO
890 s	CC1(C)c2ccccc2-c2nc3ccccc3cc2C1O (configuration not stated)
879 s	CCc1cccc(NC(=O)C2CCN(C(=O)c3ncn4c3COC(c3ccccc3)C4)CC2)c1 (configuration not stated)
656 s	O=C(Cc1ccc(Cl)cc1)NC1CCN(c2nnc3ccccn23)CC1
744 s	CCc1nc(-c2cc(S(=O)(=O)N3CCC(C(=O)NC4CC4)CC3)c(C)s2)no1
858 s	O=C(Cn1c(=O)c2cccn2c2ccc(F)cc21)Nc1ccccc1F
629 s	C[C@@H](O)[C@H](NC(=O)c1ccc(C#Cc2ccc(CN3CCOCC3)cc2)cc1)C(=O)NO
700 s	Cn1nc2c(c1NC(=O)C1CCCN1S(=O)(=O)c1ccc(F)cc1)CCC2 (configuration not stated)
685 s	CNC(=O)c1ccc(-c2nc3cc(NS(=O)(=O)c4ccc5c(c4)CCCC5)ccc3n2C)cc1

RP-LC retention time	Structure (SMILES)
650 s	Cn1nc(C(=O)NCc2cc(-c3cccs3)on2)ccc1=O
804 s	O=C(NC1CC1)c1ccc(OCC2CCN(C(=O)c3ccc(F)cc3F)CC2)cc1
846 s	O=C(NCCc1cccs1)C1CCN(Cc2cc3ccccc3n2Cc2ccc(Cl)cc2)CC1
1120 s	Cc1ccccc1Nc1nc(-c2ccccc2)cs1
804 s	O=C(NCc1cccs1)c1nnc(-c2ccc(S(=O)(=O)N3CCOCC3)cc2)o1
744 s	CCN1C(=O)COc2ccc(-c3noc(C4CCN(C(C)=O)CC4)n3)cc21
722 s	O=c1ccc(-c2nc(-c3cccc(Cl)c3)no2)cn1Cc1ccncc1
908 s	Cc1cccc(-c2nc(Cn3nnc(-c4nc(-c5ccccc5Cl)no4)c3C)c(C)o2)c1
806 s	O=C(CCc1ccc2cc[nH]c2c1)NCc1cccs1
639 s	O=C(Nc1c(-c2ccc(F)cc2)nc2ccccn12)c1ccccc1F
1010 s	COc1ccc(-c2nc(NC(=O)CS(=O)(=O)c3ccc(C)cc3)sc2C)cc1
1090 s	O=C1CCCCC1Oc1cc(O)c2c(=O)cc(-c3ccccc3)oc2c1 (configuration not stated)
801 s	CCOC(=O)C1CCN(C(=O)C2CCN(c3nnc(-c4ccccc4)o3)CC2)CC1
650 s	Fc1ccc(-c2noc(Cn3ccnc3)n2)cc1Br
658 s	CC1CCN(c2nnc(-n3cccc3CN3CCN(c4ccccn4)CC3)s2)CC1
823 s	COc1ccc(OCc2nnc3sc(-c4ccccn4)nn23)cc1
574 s	O=C(CCC1CCN(c2cc(NC3CC3)ncn2)CC1)NCCN1CCc2ccccc2C1
1090 s	O=C(c1ccc2c(c1)OCO2)N1CCc2cc(-c3csc(C4CC4)n3)ccc21
540 s	CNC(=O)[C@@H]1C[C@H](Oc2cccnc2)CN1C(=O)C1CCC1
635 s	COC(=O)CNC(=O)N1CCc2cc(-c3ccc(C(=O)N4CCOCC4)cc3)ccc21
633 s	COCCN1C(=O)[C@H]2CN(Cc3cc(Br)ccc3OC)C[C@H]2C1=O
1160 s	COc1ccccc1-c1nnc(-c2cc(S(=O)(=O)N3CCC(C)CC3)ccc2Cl)o1

RP-LC retention time	Structure (SMILES)
717 s	COc1ccc(-n2ncc(C(=O)N3CCN(C(=O)c4ccco4)CC3)c2-n2cccc2)cc1
646 s	COCc1noc(CC2CCOC3(CCN(Cc4ccc5c(c4)CCO5)CC3)C2)n1 (configuration not stated)
783 s	CC1CN(C(=O)Cn2cc(SCC(=O)N3CCCCC3)c3ccccc32)CC(C)O1 (configuration not stated)
644 s	CCn1cc(CCN2CCC(C(=O)Nc3ccc(C)cc3)CC2)c2cccnc21
704 s	CCOC(=O)C1=C(CN2CC=C(c3ccccc3)CC2)NC(=O)NC1c1cccc(OC)c1OC (configuration not stated)
909 s	CCc1ccccc1N(C)C(=O)C1CCCN(c2ncnc3c2nc2n3CCCCC2)C1 (configuration not stated)
764 s	C=CCN(CC=C)S(=O)(=O)c1ccc(C(=O)Nc2nnc(CSC)o2)cc1
998 s	CCc1cccc(NC(=O)CN2C(=O)CCc3cc(S(=O)(=O)N4CCCCC4C)ccc32)c1 (configuration not stated)
726 s	Cc1cc(C(F)(F)F)nn1CC(=O)NCC1Cn2cccc2CN1C (configuration not stated)
614 s	CCOC(=O)C1CCN(Cc2nnn(-c3ccccc3)c2C)CC1
774 s	O=C(Cc1ccsc1)N1CCC2(CC1)N=C(c1ccccc1)NO2
658 s	CSc1ccc(-c2nc3cnccn3c2Nc2ccc(C(N)=O)cc2)cc1
690 s	Cc1oc(-c2ccc(C(=O)NCCN3CCOCC3)cc2)nc1CN1CCc2ccccc21
592 s	O=C(NCCCN1CCCCC1)c1ccc(-c2ccnc(N3CCCC3)n2)cc1
665 s	CN1CCN(CC2CCC3(CCN(S(=O)(=O)c4ccc(C(C)(C)C)cc4)CC3)O2)CC1 (configuration not stated)
1010 s	CCCc1nc(-c2c(C)cc(C)nc2NC(=O)c2cccc(Br)c2)no1
785 s	CN(C(=O)C1CCCN(c2ncnc3c2nc2n3CCCCC2)C1)c1ccccc1F (configuration not stated)
774 s	CCn1ncc(CN(C)C(=O)C2CN(C(=O)c3ccccc3)CC23CCCCC3)c1C (configuration not stated)
1200 s	Cc1cc(C)cc(-c2nnc(Cc3nc(-c4ccccc4C)no3)o2)c1
617 s	Cn1cc(CCN2CCC(C(=O)NCc3ccc(Cl)cc3)CC2)c2cccnc21
631 s	Cn1nnc2c(SCC(=O)NCc3ccco3)ncnc21
827 s	COc1ccc(NC(=O)N2CCOc3ccc(C)cc32)cc1OC

RP-LC retention time	Structure (SMILES)
861 s	O=C(NCc1ccccc1C(F)(F)F)C1CCCN(c2ncnc3c2oc2ccccc23)C1 (configuration not stated)
792 s	COc1ccc(Cn2nc3ccc(S(=O)(=O)N4CCOCC4)cn3c2=O)cc1
707 s	Cc1nc(NC2=NCN(Cc3ccc4c(c3)OCO4)CN2)nc2ccccc12
679 s	CCCCN(Cc1ccco1)C(=O)Cn1nc(Cc2ccncc2)c2ccccc2c1=O
843 s	CCN1C(=O)C(C)(C(=O)NCc2ccccc2OC)Oc2cccnc21 (configuration not stated)
997 s	CCc1nc(-c2csc(S(=O)(=O)N3CCC(C(=O)NC4CCCCCC4)CC3)c2)no1
684 s	CN(C)c1cccc(C(=O)NC2CCN(c3cc(-c4ccc(F)cc4)[nH]n3)C2)c1 (configuration not stated)
652 s	O=C(NCCn1ncccc1=O)C1(c2cccs2)CCCC1
769 s	NC(=O)c1oc2ccccc2c1NC(=O)c1coc2ccccc2c1=O
786 s	COCCNC(=O)c1cc2c(n(-c3ccc(C(F)(F)F)cc3)c1=O)CCCC2=O
917 s	CCn1c(=O)sc2cc(S(=O)(=O)N3CCC(C(=O)Nc4ccccc4OC)CC3)ccc21
1230 s	COc1ccccc1NC(=O)CSc1nc2ccccc2c(=O)n1C1CCCCC1
733 s	CS(=O)(=O)NCc1ccc2c(c1)CCN2C(=O)c1ccccc1
875 s	Cc1ccc(OCc2nnc(SCC(=O)Nc3nc(-c4ccccc4)cs3)o2)cc1
677 s	Cc1ccc(S(=O)(=O)c2cnc(N3CCN(c4ccccn4)CC3)nc2N)cc1C
690 s	CCOC(=O)c1c(C)c(S(=O)(=O)N2CCN(c3ccccn3)CC2)c(C)n1C
1330 s	CCCN(C(=O)CC)c1nc(-c2ccc(C)cc2)cs1
558 s	O=C(NCCN1CCCCC1)C1CCc2sc(C(=O)N3CCCCC3)cc2C1 (configuration not stated)
903 s	CCC1Oc2ccc(S(=O)(=O)N3CCC(C(=O)Nc4ccc(C)cc4)CC3)cc2NC1=O (configuration not stated)
966 s	CCC(C)NS(=O)(=O)c1cc(-c2nnc(-c3ccccc3)o2)ccc1F (configuration not stated)
751 s	CCS(=O)(=O)N1CCCN(c2ccc(=O)n(-c3ccc(C)cc3)n2)CC1
